From patent US11021481B2, “Substituted isoindolin-1-ones and 2,3-dihydro-1h-pyrrolo[3,4-c]pyridin-1-ones as HPK1 antagonists” (Nimbus Saturn, Inc., priority 2019, dated 2021)

target: HPK1 (Homo sapiens (Human), UniProt Q92918); experiment: HPK1 biochemical enzyme assay (microfluidic mobility shift assay); details: 1.5 nM HPK1, ATP 1 mM final, 30 min preincubation, 60 min at RT, Caliper EZ Reader; read-out: HPK1 1000UMATP caliper IC50
Procedure, shortened: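 Ten-point compound titrations (top 3 μM final) preincubated 30 min with HPK1 and substrate, then reaction started with 1 mM ATP and 1 μM substrate, 5 mM MgCl2. After 60 min at RT, reaction terminated and product measured by microfluidic mobility shift.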

Chain of HPK1 (Q92918 whole entry): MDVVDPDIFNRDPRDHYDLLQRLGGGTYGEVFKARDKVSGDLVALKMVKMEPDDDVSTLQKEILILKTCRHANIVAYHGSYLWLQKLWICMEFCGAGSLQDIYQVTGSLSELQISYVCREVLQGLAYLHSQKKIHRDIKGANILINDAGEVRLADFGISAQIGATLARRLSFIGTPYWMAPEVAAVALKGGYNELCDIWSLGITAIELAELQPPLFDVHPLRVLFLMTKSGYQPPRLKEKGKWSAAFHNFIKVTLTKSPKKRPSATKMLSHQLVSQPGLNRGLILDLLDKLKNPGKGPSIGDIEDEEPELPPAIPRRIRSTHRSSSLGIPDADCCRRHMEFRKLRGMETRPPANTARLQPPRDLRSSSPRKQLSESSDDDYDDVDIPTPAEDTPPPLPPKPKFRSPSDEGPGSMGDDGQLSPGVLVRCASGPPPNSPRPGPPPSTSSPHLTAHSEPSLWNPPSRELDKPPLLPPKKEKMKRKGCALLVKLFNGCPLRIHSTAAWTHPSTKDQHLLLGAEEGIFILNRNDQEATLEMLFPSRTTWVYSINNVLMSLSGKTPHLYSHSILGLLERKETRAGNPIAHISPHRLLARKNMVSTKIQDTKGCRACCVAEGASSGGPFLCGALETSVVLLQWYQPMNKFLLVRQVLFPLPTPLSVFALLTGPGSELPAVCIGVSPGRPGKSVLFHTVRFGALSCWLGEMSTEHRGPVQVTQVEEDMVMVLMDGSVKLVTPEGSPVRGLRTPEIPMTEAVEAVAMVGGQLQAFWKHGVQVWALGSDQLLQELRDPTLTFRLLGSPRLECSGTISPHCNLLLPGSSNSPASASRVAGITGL

| SMILES | IC50 [nM] |
| --- | --- |
| N#Cc1ccn2c(-c3ccc(Nc4ccc(N5CCC(O)CC5)cn4)c4c3CNC4=O)cnc2c1 [I-182, 3-[7-[[5-(4-hydroxy-1-piperidyl)-2-pyridyl]amino]-1-oxo-isoindolin-4-yl]imidazo[1,2-a]pyridine-7-carbonitrile] | < 100 |
| N#Cc1ccn2c(-c3ccc(Nc4ccc(N5CCOCC5)cn4)c4c3CNC4=O)cnc2c1 [I-183, 3-[7-[(5-morpholino-2-pyridyl)amino]-1-oxo-isoindolin-4-yl]imidazo[1,2-a]pyridine-7-carbonitrile] | < 100 |
| Cc1cnn2c(-c3ccc(Nc4ccc(N5CCC(O)CC5)cn4)c4c3CNC4=O)cnc2c1 [I-184, 7-[[5-(4-hydroxy-1-piperidyl)-2-pyripyl]amino]-4-(7-methylimidazo [1,2-b]pyridazin-3-yl)isoindolin-1-one] | < 100 |
| CCOc1c(C#N)ccn2c(-c3ccc(Nc4ccc(N5CCC(O)CC5)cn4)c4c3CNC4=O)cnc12 [I-185, 8-ethoxy-3-[7-[[5-(4-hydroxy-1-piperidyl)-2-pyripyl]amino]-1-oxo-isoindolin-4-yl]imidazo[1,2-a]pyridine-7-carbonitrile] | 100 to 1000 |
| O=C1NCc2c(-c3cnc4cc(Cl)ccn34)ccc(Nc3ccc(N4CCC(O)CC4)cn3)c21 [I-187, 4-(7-chloroimidazo [1,2-a]pyridin-3-yl)-7-[[5-(4-hydroxy-1-piperidyl)-2-pyridyl]amino] isoindolin-1-one] | < 100 |
| N#Cc1ccn2c(-c3ccc(Nc4ccc(N5CCC(O)CC5)cn4)c4c3CNC4=O)cnc2c1F [I-188, 8-fluoro-3-[7-[[5-(4-hydroxy-1-piperidyl)-2-pyridyl]amino]-1-oxo-isoindolin-4-yl]imidazo[1,2-a]pyridine-7-carbonitrile] | < 100 |
| N#Cc1ccn2c(-c3ncc(Nc4ccc(N5CCOCC5)cn4)c4c3CNC4=O)cnc2c1 [I-189, 3-[7-[(5-morpholino-2-pyridyl)-amino]-1-oxo-2,3-dihydropyrrolo [3,4-c]pyridin-4-yl]imidazo[1,2-a]pyridine-7-carbonitrile] | 100 to 1000 |
| Cn1ccc2c(-c3c(Cl)cc(Nc4ccc(N5CCC(O)CC5)cn4)c4c3CNC4=O)ccnc21 [I-190, 5-chloro-7-[[5-(4-hydroxy-1-piperidyl)-2-pyridyl]amino]-4-(1-methylpyrrolo[2,3-b]pyridin-4-yl)isoindolin-1-one] | < 100 |
| Cc1ccn2c(-c3ccc(Nc4ccc([C@H]5CCOC5)cn4)c4c3CNC4=O)cnc2c1 [I-191, (R)-4-(7-methylimidazo [1,2-a]pyridin-3-yl)-7-((5-(tetrahydro-furan-3-yl)pyridin-2-yl)amino)isoin-dolin-1-one] | < 100 |
| Cc1ccn2c(-c3ccc(Nc4ccc([C@@H]5CCOC5)cn4)c4c3CNC4=O)cnc2c1 [I-192, (S)-4-(7-methylimidazo [1,2-a]pyridin-3-yl)-7-((5-(tetrahydro-furan-3-yl)pyridin-2-yl)amino)isoin-dolin-1-one] | < 100 |
| O=C1NCc2c(-c3ccnc4[nH]ccc34)ncc(Nc3ccc(N4CCC(O)CC4)cn3)c21 [I-193, 7-[[5-(4-hydroxy-1-piperidyl)-2-pyridyl]-amino]-4-(1H-pyrrolo[2,3-b]pyridin-4-yl)-2,3-dihydropyrrolo [3,4-c]pyridin-1-one] | < 100 |
| O=C1NCc2c(-c3cnc4cc(C(F)F)ccn34)ccc(Nc3ccc(N4CCC(O)CC4)cn3)c21 [I-194, 4-[7-(difluorometh-yl)imidazo[1,2-a]pyridin-3-yl]-7-[[5-(4-hydroxy-1-piperidyl)-2-pyripyl]amino] isoindolin-1-one] | < 100 |
| CCNC(=O)c1ccn2c(-c3ccc(Nc4ccc(N5CCC(O)CC5)cn4)c4c3CNC4=O)cnc2c1 [I-195, N-ethyl-3-[7-[[5-(4-hydroxy-1-piperidyl)-2-pyridyl]amino]-1-oxo-isoindolin-4-yl]imidazo[1,2-a]pyridine-7-carboxamide] | 100 to 1000 |
| O=C1NCc2c(-c3cnc4cc(CO)ccn34)ccc(Nc3ccc(N4CCOCC4)cn3)c21 [I-196, 4-[7-(hydroxymeth-yl)imidazo[1,2-a]pyridin-3-yl]-7-[(5-morpholino-2-pyridyl)amino] isoindolin-1-one] | < 100 |
| Cn1ccc2c(-c3c(F)cc(Nc4ccc(N5CCC(O)CC5)cn4)c4c3CNC4=O)ccnc21 [I-197, 5-fluoro-7-[[5-(4-hydroxy-1-piperidyl)-2-pyridyl]amino]-4-(1-methylpyrrolo[2,3-b]pyridin-4-yl)isoindolin-1-one] | < 100 |
| O=C1NCc2c(-c3cnc4cccnn34)ncc(Nc3ccc(N4CCC(O)CC4)cn3)c21 [I-199, 7-[[5-(4-hydroxy-1-piperidyl)-2-pyripyl]amino]-4-imidazo[1,2-b]pyridazin-3-yl-2,3-dihydropyrrolo [3,4-c]pyridin-1-one] | 100 to 1000 |
| O=C1NCc2c(-c3ccnc4c3ccn4C(F)F)ncc(Nc3ccc(N4CCC(O)CC4)cn3)c21 [I-200, 4-[1-(difluorometh-yl)pyrrolo[2,3-b]pyridin-4-yl]-7-[[5-(4-hydroxy-1-piperidyl)-2-pyridyl]-amino]-2,3-dihxdropyrrolo [3,4-c]pyridin-1-one] | < 100 |
| O=C1NCc2c(-c3cnc4cc(OCCO)ccn34)ccc(Nc3ccc(N4CCOCC4)cn3)c21 [I-201, 4-[7-(2-hydroxyeth-oxy)imidazo[1,2-a]pyridin-3-yl]-7-[(5-morpholino-2-pyridyl)amino] isoindolin-1-one] | < 100 |
| CC(C)(O)[C@@H]1CCCN(c2ccc(Nc3ccc(-c4cnc5cc(F)ccn45)c4c3C(=O)NC4)nc2)C1 [I-202] | < 100 |
| O=C1NCc2c(-c3cnc4cc(F)ccn34)ccc(Nc3ccc(N4CCC(C(=O)O)CC4)cn3)c21 [I-203, l-[6-[[7-(7-fluoroimidazo [1,2-a]pyridin-3-yl)-3-oxo-isoindolin-4-yl]amino]-3-pyridyl]piper-idine-4-carboxylic acid] | < 100 |
| O=C1NCc2c(-c3cnc4cc(F)ccn34)ccc(Nc3ccc(N4CCC(CO)CC4)cn3)c21 [I-204, 4-(7-fluoroimidazo [1,2-a]pyridin-3-yl)-7-[[5-[4-(hydroxymeth-yl]-1-piperipyl]-2-pyripyl]-amino]isoin-dolin-1-one] | < 100 |
| COCCNc1ccn2c(-c3ccc(Nc4ccc(N5CCC(O)CC5)cn4)c4c3CNC4=O)cnc2c1 [I-205, 7-[[5-(4-hydroxy-1-piperidyl)-2-pyridyl]-amino]-4-[7-(2-methoxyethyl-amino)imidazo [1,2-a]pyridin-3-yl]isoindolin-1-one] | 100 to 1000 |
| COCCNc1ccn2c(-c3ccc(Nc4ccc(N5CCOCC5)cn4)c4c3CNC4=O)cnc2c1 [I-206, 4-[7-(2-methoxyethyl-amino)imidazo [1,2-a]pyridin-3-yl]-7-[(5-morpholino-2-pyridyl)amino] isoindolin-1-one] | 100 to 1000 |
| CCNC(=O)c1ccn2c(-c3ccc(Nc4ccc(N5CCOCC5)cn4)c4c3CNC4=O)cnc2c1 [I-207, N-ethyl-3-[7-[(5-morpholino-2-pyridyl)-amino]-1-oxo-isoindolin-4-yl]imidazo[1,2-a]pyridine-7-carboxamide] | 100 to 1000 |
| O=C1NCc2c(-c3cnc4cnccn34)ncc(Nc3ccc(N4CCC(O)CC4)cn3)c21 [I-208, 7-[[5-(4-hydroxy-1-piperidyl)-2-pyridyl]-amino]-4-imidazo[1,2-a]pyrazin-3-yl-2,3-dihydropyrrolo [3,4-c]pyridin-1-one] | 100 to 1000 |
